# Measurements published in patent US20120329721A1, “MEANS FOR PREVENTING AND TREATING CELLULAR DEATH AND THEIR BIOLOGICAL APPLICATIONS” (CHIESI FARMACEUTICI S.P.A., priority 2003, published 2012).
# “Also recorded” adds a separate entry of the source. Like-named read-outs stand apart in the source and are kept apart here. Residues, ends and D or L forms follow the SMILES beside them. *: point of attachment. Cbz = O=C(OCc1ccccc1)*; d = 2'-deoxy (DNA); r = 2'-OH (RNA); CH2F = FC*
# T1: human recombinant caspase-2 (Homo sapiens, UniProt P42575)
# T1 construct: purchased BIOMOL
# T1 sequence (P42575 170-325 limits assumed): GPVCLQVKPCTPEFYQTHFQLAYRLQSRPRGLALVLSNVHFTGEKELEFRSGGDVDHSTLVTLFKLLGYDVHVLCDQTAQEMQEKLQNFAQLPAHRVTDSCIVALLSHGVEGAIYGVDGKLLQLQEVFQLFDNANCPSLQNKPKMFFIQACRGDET
# T1 sequence (P42575 348-452 limits assumed): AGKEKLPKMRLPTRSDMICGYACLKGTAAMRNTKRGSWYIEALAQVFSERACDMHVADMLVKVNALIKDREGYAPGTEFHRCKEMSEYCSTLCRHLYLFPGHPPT
# T2: VDVAD-AMC
# T2 chain: VDVAD
# Key:
# [1] = test system: neonatal ischemic brain injury in 7 day-old rats; details: cited from earlier work
# [2] = biological target: T1, human recombinant caspase-2; test: In vitro VDVAD-AMC cleavage by recombinant caspase-2; type: biochemical
# Description: Activity of human recombinant caspase-2 (BIOMOL QuantiZyme™ Assay System) was assessed in 100 μl assay buffer (50 mM HEPES, pH 7.4, 100 mM NaCl, 0.1% CHAPS, 10 mM DTT, 1 mM EDTA, 10% glycerol).
# primary cortical neurons [3] = type: cell-based; details: for ΔΨm loss (drop) in SD-neurons: JC-1
# Bax α = test: Bax cleavage (p22 to p18) in SD-neurons by Western blotting; type: cell-based, mouse; details: 24 hr-SD, Western Blotting Δ21 antibody; VDVAD/QVDOPH 100 μM, ALLN/ALLM 25 μM, E64d 25-50 μM, lactacystin 1-10 μM, epoxomycin 10 μM
# Description: Neurons were lysed at RT in 25 mM Tris-HCl pH 7.4, 25 mM NaCl, 5 mM EDTA, 1% Triton X-100 supplemented by complete protease inhibitors cocktail (Roche). Protein concentration was determined using the Bio-Rad protein assay kit. Proteins (30 μg for caspase-2; 10 μg for Bax) were separated on 12.5% polyacrylamide gels and transferred to PVDF membranes (Amersham). […] The monoclonal anti-mouse caspase-2antibody (11B4, Alexis Biochemicals) was used at a 1:1000 dilution; polyclonal antibody (Δ21, Santa Cruz Biotechnology) raised against mouse Bax α deleted for the carboxy terminal 21 amino acids was used at a 1:200 dilution; polyclonal antibody (N20, Santa Cruz Biotechnology) raised against the amino terminus of Bax α (recognizing residues 11 to 30) was used at a 1:1000 dilution. Actin (42 kDa; Sigma; 1:5000) is used as an equal loading control. Immunoblotting of heat-shock protein 60 (HSP60) with a mouse monoclonal anti-HSP (Sigma; 1:400) was used to check the purity of the heavy membrane fraction enriched in mitochondria.
# murine caspase-2 = test: Caspase-2 knock-down by siRNA in cortical neurons (RT-PCR, Western blotting, 10C6 immunostaining); type: cell-based, mouse; details: in situ antibody-based detection
# caspase-8 = test: In cellula caspase-8 like activity (FAM-LETD-FMK FLICA) in SD-neurons; type: cell-based, mouse
# Bax = Bax translocation to mitochondria in SD-neurons (Δ21 antibody immunostaining, subcellular fractionation); type: cell-based, mouse
# caspase-9 = test: In cellula caspase-9 like activity (FAM-LEHD-FMK FLICA) in SD-neurons; type: cell-based, mouse
# Description: Neurons were incubated with 1/150 of the DMSO stock solution of the FLICA for 1 hr at 37° C. 7-AAD and Hoechst were added during the last 15 min. Then neurons were washed three times in washing buffer (CaspaTag™ Kit). […] Cleaved caspase-3 was evidenced in cellula by immunodetection using Phycoerythrin (PE)-conjugated polyclonal antibodies (Beckton Dickinson). Neurons were stained by 7-AAD, trypsinized and fixed in PBS containing 1% PFA and 20 μg/ml Actinomycin D (AD) for 20 min. […] After washings in PBS, PE-related fluorescence was analysed on the cytometer (Fl-2 channel). Z-val-Ala-Asp(OMe)-FMK (Z-VAD-FMK), Quinoline-Val-Asp (OMe)-CH2-O-Ph (Q-VD-OPH), Z-DEVD-FMK ([…], ICN) and Z-LEHD-FMK ([…], all purchased from ICN (Orsay, France), and 4-(2-Aminoethyl)benzenesulfonyl fluoride (AEBSF, Pefabloc SC, Roche, Meylan, France) were added at 100 μM at the initiation of serum deprivation. Sulforhodamine-DEVD-FMK, (CaspaTag™ Red Activity Kit) permitted to detect activated caspase-3 and FITC-Annexin V. Neurons were incubated with 1/900 of the DMSO stock solution of the FLICA, and 1× FITC-annexin V in 200 μl of annexin-buffer for 30 min at 37° C. Then neurons were washed three times in a buffer composed of 50% washing buffer and 50% annexin-buffer. […] For FM, FLICA was excited through the BP515-560 filter and its fluorescence was collected through the LP590 long pass emission filter.
# Neurons were loaded with 1 μM JC-1 for 30 min at 37° C. […] JC-1 monomers were detected in the Fl-1 channel by FC. […] Activated caspase-2, -3, -8 and -9 were detected using specific FAM-conjugated peptides (called Fluorochrome Labeled Inhibitor of Caspase, FLICA: CaspaTag™ fluorescein Caspase Activity Kits, Q-Biogen, Illkirch, France; ApoFluor™ Caspase Detection Kits, ICN, Orsay, France): FAM-VDVAD-FMK, FAM-DEVD-FMK, FAM-LETD-FMK and FAM-LEHD-FMK, respectively. Neurons were incubated with FLICAs (1:150, CaspaTag™ or 1:500, ApoFluor™) for 1 hr at 37° C., then washed three times in washing buffer. […] Phosphatidylserine (PS) exposure to the outer leaflet of the plasma membrane was detected through the fixation of FITC conjugated-annexin V (Immunotech).
# cytochrome c = test: Immunodetection of cytochrome c release in SD-neurons; type: cell-based, mouse
# caspase-3 = test: In cellula caspase-3 like activity (FAM-DEVD-FMK FLICA or anti-cleaved caspase-3 antibody) in SD-neurons; type: cell-based, mouse
# primary cortical neurons [4] = test: Cortical neuron death induced by other stimuli (ionomycin, staurosporine, β-amyloid 25-35, MPTP, 3-NPA, SNP); type: cell-based, mouse
# caspase-2 [5] = test: In cellula caspase-2 like activity (FAM-VDVAD-FMK FLICA; Western blotting) in SD-neurons; type: cell-based, mouse
# Jurkat cells = test: VP16-induced cell death of Jurkat cells, cytoprotection assay; type: cell-based, human
# [6] = test system: neonatal ischemic brain injury in 7 day-old rats; details: rat, in vivo, ip
# caspase-2 [7] = test: Caspase-2 activation (FLICA) in VP16-treated Jurkat cells; type: cell-based, human; details: VP16 10 μM, 7 hrs; inhibitors 50 μM
# VDVAD-AMC = biological target: T2, VDVAD-AMC
# [8] = inhibitor 2 μM, 50 μM VDVAD-AMC, caspase-2 125 U, 30 min at 37° C.
# [9] = 24 hr-SD, inhibitors 100 μM (BA 25 μM)
# [10] = 24 hr-SD, inhibitors 100 μM (BA 25 μM), listed as z-LEHD-fmk
# [11] = 24 hr-SD, inhibitors 100 μM (BA 25 μM), listed as LEHD
molecule,measurement,setting,value
"COC(=O)CC(NC(=O)OC(C)(C)C)C(=O)CF [BOC-D-FMK, BOC-Asp(OMe)-fluoromethylketone]",animals with aggravation,[1]; Renolleau's model,60%
same,reduction in infarct volume (previous results in this model),[1]; previous results obtained in this model,did not induce such a significant reduction in infarct volume
same,inhibition of VDVAD-AMC cleavage by recombinant caspase-2,[2]; [8],completely inactive
same,survival / protection of SD-neurons against cell death (apoptosis hallmarks overall),primary cortical neurons [3],neither Z-VAD-FMK nor BOC-D-FMK (BOC-D) is able to delay or to abrogate; also recorded: inefficient
same,Survival,"primary cortical neurons [3]; SD model, compound added at the start of SD at the concentration of column '[ ], μM' (first concentration/target where two are printed)",No
"siRNA C2 m: irrelevant control siRNA with 4 mutations, duplex of SEQ ID No 3 and SEQ ID No 4 (chain 1 CAUCUACUCGAGACGGACATT; chain 2 UGUCCGUCUCGAGUAGAUGTT; sugars from the 5' end r19 d2, backbone not given here)",Bax cleavage (p18 Bax) in SD-neurons,Bax α,has no effect
same,caspase-2 expression (gene silencing / knock-down),murine caspase-2,prevents neither gene/protein expression
"COC(=O)CC(NC(=O)C(NC(=O)c1ccc2ccccc2n1)C(C)C)C(=O)COc1ccccc1 (stereo not shown) [Q-VD-OPH, Quinoline-Val-Asp (OMe)-CH2-O-Ph]",caspase-8 like activity in SD-neurons,caspase-8,completely inactivated
same,Bax translocation (relocation) to mitochondria in SD-neurons,Bax,impair Bax translocation to mitochondria; also recorded: prevented
same,caspase-9 like activity / activation in SD-neurons,caspase-9,completely inactivated; also recorded: prevent downstream cytochrome c release-dependent activation
same,cytochrome c release from mitochondria in SD-neurons,cytochrome c,efficiently blocked
same,caspase-3 like activity / activation in SD-neurons,caspase-3,strongly prevent; also recorded: completely inactivated; also recorded: prevent downstream cytochrome c release-dependent activation
same,inhibition of caspase-3 like activity induced by serum deprivation,caspase-3; 100 µM,95.3 +/- 5.6%
same,inhibition of VDVAD-AMC cleavage by recombinant caspase-2,[2],blocked
same,cell death induced by staurosporine or ionomycin,primary cortical neurons [4],is not prevented
same,"protection from NA and PMP induced by β-amyloid (25-35), MPTP, 3-NPA, SNP or ionomycin",primary cortical neurons [4],"fails to provide protection, except for β-amyloid; also recorded: fail to prevent significantly"
same,caspase-2 like activity / activation in SD-neurons,caspase-2 [5],completely inactivated; also recorded: abolish caspase-2 activation
same,cell death induced by VP16 (survival),Jurkat cells,prevents cell death
same,terminal nuclear alterations and PMP in VP16-treated Jurkat cells,Jurkat cells,mostly prevent
same,animals that exhibited no infarct,[6],4
same,infarct volume (% damage in the lesioned ipsilateral hemisphere),[6],12.4±2.6%
same,mortality rate during ischemia or before killing,[6],< 4%
same,reduction in infarct volume,[6],44%
same,Survival,primary cortical neurons [3],Yes
same,concentration required for optimal survival / higher protective effect,primary cortical neurons [3],100 µM
same,"degradation phase of apoptosis: PS exposure, nuclear apoptosis (NA), PMP in SD-neurons",primary cortical neurons [3],strongly prevent; also recorded: fully blocked
same,inhibition of PMP (7-AAD) induced by serum deprivation,primary cortical neurons [3],93.9+/−3.8%
same,survival / protection of SD-neurons against cell death (apoptosis hallmarks overall),primary cortical neurons [3],mostly rescued; also recorded: highly preserves both nuclear morphology and neurites integrity
"COC(=O)CCC(NC(=O)C(CC(C)C)NC(=O)OCc1ccccc1)C(=O)NC(Cc1cnc[nH]1)C(=O)NC(CC(=O)OC)C(=O)CF (stereo not shown) [Z-LEHD-FMK, N-benzyloxycarbonyl-Leu-Glu(Ome)-His-Asp(OMe)-fluoromethylketone] (Cbz-LE(OMe)HD(OMe)-CH2F; configuration not given here)",Bax translocation (relocation) to mitochondria in SD-neurons,"Bax; 24 hr-SD, inhibitors 100 μM (furosemide 2 mM)",does not prevent mitochondrial Bax relocation
same,Bax translocation (relocation) to mitochondria in SD-neurons,"Bax; 24 hr-SD, inhibitors 100 μM (furosemide 2 mM), listed as LEHD",fail to impair Bax relocation
same,caspase-2 activation in VP16-treated Jurkat cells,caspase-2 [7],do not impair caspase-2 activation
same,caspase-9 like activity / activation in SD-neurons,caspase-9; [9],prevents caspase-9 activation
same,caspase-9 like activity / activation in SD-neurons,caspase-9; [10],abolition of caspase-9 like activity
same,cytochrome c release from mitochondria in SD-neurons,"cytochrome c; 24 hr-SD, inhibitors 100 μM",could not prevent cytochrome c release
same,cytochrome c release from mitochondria in SD-neurons,"cytochrome c; 24 hr-SD, inhibitors 100 μM, listed as LEHD",fail to impair cytochrome c release
same,inhibition of VDVAD-AMC cleavage by recombinant caspase-2,[2]; [8],did not interfere highly; also recorded: not strongly inactivated
same,ΔΨm loss in VP16-treated Jurkat cells,"Jurkat cells; VP16 10 μM, 7-8 hrs, inhibitors 50 μM",not abolished
same,ΔΨm loss (drop) in SD-neurons,primary cortical neurons [3]; [9],does not impair; also recorded: does not impaired ΔΨm drop
same,ΔΨm loss (drop) in SD-neurons,primary cortical neurons [3]; [11],does not impair ΔΨm drop
same,"degradation phase of apoptosis: PS exposure, nuclear apoptosis (NA), PMP in SD-neurons",primary cortical neurons [3]; [9],delays and prevents apoptotic bodies formation but not stage I-condensation; also recorded: prevents
same,"degradation phase of apoptosis: PS exposure, nuclear apoptosis (NA), PMP in SD-neurons",primary cortical neurons [3]; [11],"preventing PS exposure, NA and PMP"
same,"degradation phase of apoptosis: PS exposure, nuclear apoptosis (NA), PMP in SD-neurons",primary cortical neurons [3]; [10],abolishes PS exposure and PMP
human recombinant caspase-2 (BIOMOL QuantiZyme Assay System) (protein) GPVCLQVKPCTPEFYQTHFQLAYRLQSRPRGLALVLSNVHFTGEKELEFRSGGDVDHSTLVTLFKLLGYDVHVLCDQTAQEMQEKLQNFAQLPAHRVTDSCIVALLSHGVEGAIYGVDGKLLQLQEVFQLFDNANCPSLQNKPKMFFIQACRGDETDRGVDQQDGKNHAGSPGCEESDAGKEKLPKMRLPTRSDMICGYACLKGTAAMRNTKRGSWYIEALAQVFSERACDMHVADMLVKVNALIKDREGYAPGTEFHRCKEMSEYCSTLCRHLYLFPGHPPT,cleavage of VDVAD-AMC (fluorescence emission at 510 nm upon excitation at 405 nm),VDVAD-AMC,The cleavage of 50 µM VDVAD-AMC by recombinant caspase-2 (125 U) was measured after 30 min at 37 °C
